This is an account of results in PMC10817531, “Chlorinated Enyne Fatty Acid Amides from a Marine Cyanobacterium: Discovery of Taveuniamides L-M and Pharmacological Characterization of Taveuniamide F as a GPCR Antagonist with CNR1 Selectivity” (Marine Drugs, 2023).

What all share (test): PathHunter β-arrestin GpcrMAX assay
What all share (type): cell-based

The target in one assay is T1, CNR2 (Homo sapiens, UniProt P34972).
T1 construct: purchased DiscoveRx (Eurofins) gpcrMAX PathHunter β-arrestin panel
T1 sequence (P34972 whole entry): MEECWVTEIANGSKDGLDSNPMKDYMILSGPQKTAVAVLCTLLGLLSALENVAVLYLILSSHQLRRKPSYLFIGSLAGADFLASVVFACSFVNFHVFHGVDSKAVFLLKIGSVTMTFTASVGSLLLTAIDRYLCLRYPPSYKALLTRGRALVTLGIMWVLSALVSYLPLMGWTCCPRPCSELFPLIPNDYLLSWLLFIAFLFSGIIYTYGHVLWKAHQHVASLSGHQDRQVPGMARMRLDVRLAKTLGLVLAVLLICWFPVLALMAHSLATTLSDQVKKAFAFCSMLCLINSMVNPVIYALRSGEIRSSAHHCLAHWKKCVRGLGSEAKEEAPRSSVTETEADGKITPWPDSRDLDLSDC
As to the method:
(§1) GpcrMAX panel biosensor assays were used to characterize taveuniamide F (4, 20 µM) (agonist and antagonist mode). The experiments were carried out by DiscoveRx Corporation (Fremont, CA, USA) as described before, using PathHunter β-arrestin enzyme fragment complementation (EFC) technology.
(§2) Dose–response curves were obtained by subjecting taveuniamide F (4) to a secondary antagonist screen utilizing ten GPCR biosensor assays (Arrestin) against the following targets: GPR119, NPSR1b, HTR2C, CCR9, CHRM4, GPR120, HTR2A, GPR103, CNR1, and CNR2. Stably transfected HEK293 cells expressing GPR119, U2OS cells expressing NPSR1b, HTR2C and HTR2A, and CHO-K1 cells expressing the rest of the mentioned receptors, were incubated with 4 for 30 min. The assays were performed at 10-point concentrations using 3-fold serial dilutions in duplicate, where the highest concentration was 50 µM.

In a further assay the target is T2, GPR120 (Homo sapiens, UniProt Q5NUL3).
T2 construct: host or cells: CHO-K1
T2 sequence (Q5NUL3 1-361): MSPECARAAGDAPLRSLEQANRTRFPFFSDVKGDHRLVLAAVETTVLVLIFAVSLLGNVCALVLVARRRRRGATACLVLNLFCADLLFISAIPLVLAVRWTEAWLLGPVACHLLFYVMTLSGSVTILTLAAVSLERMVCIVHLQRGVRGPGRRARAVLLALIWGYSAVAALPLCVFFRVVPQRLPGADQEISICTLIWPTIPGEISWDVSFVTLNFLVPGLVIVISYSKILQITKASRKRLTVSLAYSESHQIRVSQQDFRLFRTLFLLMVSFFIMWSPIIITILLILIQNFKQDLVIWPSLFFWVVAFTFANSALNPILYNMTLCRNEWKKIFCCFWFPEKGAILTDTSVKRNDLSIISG
As to the method:
as §1, §2

The next assay has as its target T3, NPSR1b (Homo sapiens, UniProt Q6W5P4).
T3 construct: β-galactosidase enzyme fragment for EFC (ProLink by own knowledge); host or cells: U2OS
The procedure: as §1, §2

A further assay has as its target T4, HTR2A (Homo sapiens, UniProt P28223).
T4 construct: host or cells: U2OS
As to the method:
as §1, §2

The target of a further assay is T5, CNR1 (Homo sapiens, UniProt P21554).
T5 construct: host or cells: CHO-K1
T5 sequence (P21554 whole entry): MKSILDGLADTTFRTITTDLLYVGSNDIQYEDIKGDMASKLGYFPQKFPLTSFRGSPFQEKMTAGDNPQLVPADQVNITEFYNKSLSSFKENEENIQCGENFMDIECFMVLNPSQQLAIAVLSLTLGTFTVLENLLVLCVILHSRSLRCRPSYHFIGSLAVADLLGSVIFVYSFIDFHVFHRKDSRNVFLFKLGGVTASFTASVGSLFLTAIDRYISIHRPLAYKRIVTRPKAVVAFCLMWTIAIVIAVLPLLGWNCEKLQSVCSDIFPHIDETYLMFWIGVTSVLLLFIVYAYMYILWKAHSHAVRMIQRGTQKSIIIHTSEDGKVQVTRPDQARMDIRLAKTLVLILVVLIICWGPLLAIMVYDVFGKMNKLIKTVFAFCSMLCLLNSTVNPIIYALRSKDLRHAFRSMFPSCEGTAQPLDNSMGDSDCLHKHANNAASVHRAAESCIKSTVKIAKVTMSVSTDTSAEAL
The procedure:
as §1, §2

The target in another assay is T6, CHRM4 (Homo sapiens, UniProt P08173).
T6 construct: host or cells: CHO-K1
T6 sequence (P08173 1-479): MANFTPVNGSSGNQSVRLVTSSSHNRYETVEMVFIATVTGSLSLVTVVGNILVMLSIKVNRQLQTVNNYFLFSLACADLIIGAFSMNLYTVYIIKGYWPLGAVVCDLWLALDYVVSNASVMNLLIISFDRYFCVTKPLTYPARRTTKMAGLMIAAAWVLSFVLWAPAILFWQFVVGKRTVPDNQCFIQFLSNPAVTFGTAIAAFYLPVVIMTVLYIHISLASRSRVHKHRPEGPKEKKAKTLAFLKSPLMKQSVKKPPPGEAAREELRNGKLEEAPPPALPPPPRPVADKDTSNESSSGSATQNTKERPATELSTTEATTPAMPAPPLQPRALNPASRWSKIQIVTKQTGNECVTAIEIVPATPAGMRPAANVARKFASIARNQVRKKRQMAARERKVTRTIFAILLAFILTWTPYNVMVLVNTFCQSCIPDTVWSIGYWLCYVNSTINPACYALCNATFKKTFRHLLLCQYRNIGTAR
The procedure:
as §1, §2

A further assay has as its target T7, HTR2C (Homo sapiens, UniProt P28335).
T7 construct: β-galactosidase enzyme fragment for EFC (ProLink by own knowledge); host or cells: U2OS
T7 sequence (P28335 33-458): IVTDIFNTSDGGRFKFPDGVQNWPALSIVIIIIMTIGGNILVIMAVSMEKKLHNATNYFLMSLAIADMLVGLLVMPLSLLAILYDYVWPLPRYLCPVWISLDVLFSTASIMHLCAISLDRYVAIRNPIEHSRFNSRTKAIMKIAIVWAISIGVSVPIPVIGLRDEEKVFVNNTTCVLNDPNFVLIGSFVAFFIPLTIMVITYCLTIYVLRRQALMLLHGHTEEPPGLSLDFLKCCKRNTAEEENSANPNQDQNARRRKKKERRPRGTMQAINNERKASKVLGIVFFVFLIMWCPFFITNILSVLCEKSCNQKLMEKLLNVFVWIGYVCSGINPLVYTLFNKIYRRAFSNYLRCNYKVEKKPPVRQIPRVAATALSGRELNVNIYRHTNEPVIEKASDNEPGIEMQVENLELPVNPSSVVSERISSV
The procedure:
as §1, §2

Another assay has as its target T8, CCR9 (Homo sapiens, UniProt P51686).
T8 construct: host or cells: CHO-K1
T8 sequence (P51686 1-369): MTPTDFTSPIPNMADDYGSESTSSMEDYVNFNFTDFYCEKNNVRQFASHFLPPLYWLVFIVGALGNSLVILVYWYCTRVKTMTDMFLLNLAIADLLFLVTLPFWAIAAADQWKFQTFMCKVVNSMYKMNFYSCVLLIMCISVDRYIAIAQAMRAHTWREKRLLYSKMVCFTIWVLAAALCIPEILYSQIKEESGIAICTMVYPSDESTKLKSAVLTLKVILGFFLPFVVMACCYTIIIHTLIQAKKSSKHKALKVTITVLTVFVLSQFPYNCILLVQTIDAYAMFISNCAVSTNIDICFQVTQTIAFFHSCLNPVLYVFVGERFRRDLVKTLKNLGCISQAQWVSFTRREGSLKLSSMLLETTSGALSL
The procedure:
as §1, §2

A further assay deals with T9, GPR119 (Homo sapiens, UniProt Q8TDV5).
T9 construct: host or cells: HEK293
T9 sequence (Q8TDV5 whole entry): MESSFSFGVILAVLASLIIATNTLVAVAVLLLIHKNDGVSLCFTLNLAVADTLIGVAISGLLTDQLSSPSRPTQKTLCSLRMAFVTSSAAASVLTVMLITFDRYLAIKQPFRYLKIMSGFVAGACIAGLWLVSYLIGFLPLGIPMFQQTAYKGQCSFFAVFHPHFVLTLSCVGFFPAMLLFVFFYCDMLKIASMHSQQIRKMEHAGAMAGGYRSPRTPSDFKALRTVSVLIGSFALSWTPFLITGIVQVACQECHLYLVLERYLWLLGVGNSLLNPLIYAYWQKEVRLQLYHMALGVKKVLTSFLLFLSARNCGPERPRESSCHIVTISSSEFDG
As to the method: as §1, §2

[1] abbreviates: antagonist dose–response, 10-point, CHO-K1 cells, 30 min.
Setting [2] is: antagonist mode (% inhibition), 20 µM.
[3] abbreviates: antagonist dose–response, 10-point, U2OS cells, 30 min.

Molecules are shown by their SMILES. Several values for one entry are separate records, joined by “and”; a condition that tells them apart may be missing. Identical values can stand only once.

T4 sequence (P28223 whole entry): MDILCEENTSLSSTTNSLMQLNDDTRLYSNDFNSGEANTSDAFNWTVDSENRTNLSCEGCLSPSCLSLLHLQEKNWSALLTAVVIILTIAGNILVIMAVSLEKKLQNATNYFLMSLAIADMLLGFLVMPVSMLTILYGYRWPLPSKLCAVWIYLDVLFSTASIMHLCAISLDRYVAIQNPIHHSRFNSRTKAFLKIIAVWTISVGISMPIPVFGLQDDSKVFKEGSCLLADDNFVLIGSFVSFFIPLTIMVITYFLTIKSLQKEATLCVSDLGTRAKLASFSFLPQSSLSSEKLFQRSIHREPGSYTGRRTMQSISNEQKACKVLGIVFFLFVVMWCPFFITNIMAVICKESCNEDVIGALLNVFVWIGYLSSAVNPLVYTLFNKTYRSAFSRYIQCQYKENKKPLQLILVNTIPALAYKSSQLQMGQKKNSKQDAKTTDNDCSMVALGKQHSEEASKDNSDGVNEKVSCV
T3 sequence (Q6W5P4 1-377 isoform Q6W5P4-4): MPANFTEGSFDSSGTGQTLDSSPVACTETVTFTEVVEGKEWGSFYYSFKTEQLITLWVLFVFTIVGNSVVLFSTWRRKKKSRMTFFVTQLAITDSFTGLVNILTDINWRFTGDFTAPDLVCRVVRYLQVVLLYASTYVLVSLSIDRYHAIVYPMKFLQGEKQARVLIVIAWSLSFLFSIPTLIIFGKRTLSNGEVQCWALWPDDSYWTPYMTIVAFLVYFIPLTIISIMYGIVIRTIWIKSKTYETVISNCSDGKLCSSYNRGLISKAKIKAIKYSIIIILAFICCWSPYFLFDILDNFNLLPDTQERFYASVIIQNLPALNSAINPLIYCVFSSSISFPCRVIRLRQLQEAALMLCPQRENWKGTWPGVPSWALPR

Broadly, the inhibition is the change of the read-out against control, counted positive when it falls. What is called IC50 is the midpoint of a concentration-inhibition curve. High values mean weaker potency, low ones greater potency. As for `CC(=O)N[C@@H](CCCC#C/C=C/Cl)CCCCCCC(Cl)Cl` [Compound 4, taveuniamide F], the inhibition at 20 µM at CNR2 worked out at 48.6%; against GPR120 (setting [2]) it was 96.9%; on HTR2A (setting [2]) it was 84.9%; at CNR1 (setting [2]), 84%; against CHRM4 (setting [2]), 98.2%; against HTR2C (setting [2]), 99.1%. Besides, at CCR9 (setting [2]), the inhibition at 20 µM is 98.9%. Further, the 50% inhibitory concentration (IC50) at GPR120 (setting [1]) is 4.7 µM and 4.72 µM; at NPSR1b (setting [3]), 4.4 µM and 4.36 µM; on HTR2A (setting [3]) it was 4.8 µM and 4.83 µM; against CNR1 (setting [1]) it was 1.84 µM; on CHRM4 (setting [1]) it was 1.9 µM and 1.92 µM; against HTR2C (setting [3]), greater than 50 µM. Also, the IC50 against CCR9 (setting [1]) is 7.4 µM and 7.38 µM; against GPR119 (antagonist dose–response, 10-point, HEK293 cells, 30 min), 11.7 µM. For the same molecule, the inhibition is no less than 80% at GPR120 (setting [2]); 102% and ≥ 80% against NPSR1b (setting [2]); no less than 80% on HTR2A (setting [2]); no less than 80% against CNR1 (setting [2]); no less than 80% on CHRM4 (setting [2]); no less than 80% on HTR2C (setting [2]). The inhibition at CCR9 (setting [2]) was no less than 80%; at GPR119 (setting [2]), 114% and ≥ 80%. In addition, the “selectivity for CNR1 over CNR2” value at CNR1 (antagonist screen (β-arrestin), CNR1 vs. CNR2) is given as 6.8 fold.
